# In US11643424B2, “Cardiopathy-reducing phosphodiester lipids” (Signpath Pharma, Inc., priority 2018, dated 2023):
# Like-named read-outs stand apart in the source and are kept apart here.
# What was measured:
# QTc prolongation = QTc prolongation by increasing oral doses of moxifloxacin, without or with concomitant 14:0 lyso PG
# AV block = assay: Drug-induced AV block: intravenous Fingolimod and/or verapamil, without and with oral 14:0 lyso PG (ECG, PR intervals); format: in vivo, guinea pigs
# Experimental: To test this hypothesis, guinea pigs were instrumented (subcutaneous ECG leads) and exposed to increasing intravenous doses of Fingolimod and/or verapamil, without and with an oral dose of 14:0 lyso PG. ECG signals were recorded continuously for 2 hours post-dose for the AV blockers Fingolimod and verapamil. PR intervals were measured following the infusion of Fingolimod. Measurements of PR were stopped when the P wave disconnected from the QRS complexes, indicating 3rd degree AV block.
# Guinea pigs exposed to an intravenous infusion of Fingolimod alone transitioned to 1st degree AV block as of a dose of 15 μg/kg, which rapidly progressed to a Mobitz Type-1, 2nd-degree AV block at 20 μg/kg, and finally progressed to 3rd degree AV block as of a dose of 23 μg/kg.
# The cohort of guinea pigs exposed to verapamil received an i.v. injection of 0.5 mg/kg, followed 60 minutes later by an intravenous infusion of Fingolimod. A 1st-degree AV block appeared at a dose of 7 μg/kg, changed to a Mobitz-Type-1 2nd degree AV block at 10 μg/kg, and transitioned to 3rd-degree dissociation between P waves and QRS complexes as of 45 μg/kg.
# The third cohort of animals received an initial oral gavage of 1.0 mg/kg 14:0 lyso PG, followed 60 minutes later by an intravenous dose of 0.5 mg/kg verapamil. Sixty (60) minutes post-verapamil, Fingolimod was infused into the animals as described above. […] A Mobitz-Type-2 AV block appeared in 2 out of 6 animals with P-QRS dissociation observed at a dose of 51 μg/kg in those two animals, and at 300 μg/kg in the rest of the animals in the cohort.
# [1] = tested on: Moxifloxacin-induced QTc prolongation; assay: Cardiac response testing: protection against Moxifloxacin-induced QTc prolongation (ECG telemetry); format: in vivo, adult male Hartley guinea pigs; conditions: for inhibition in vivo at 2 mg/kg: Cavia porcellus, po; for Maximal prolongation: QTc; for Onset of protection / Time of maximal protection / Duration of complete protection: single oral 2 mg/kg test compound with oral moxifloxacin; for Duration of complete protection: 6 h recording
# Experimental: Efficacy evaluation of the compounds of the present invention involved ECG measurements of adult male Hartley guinea pigs wherein PR, QRS, QT, QTc, JT, RR were recorded. In typical experiments, subcutaneous Kaha TR50B bio potential telemeters were surgically implanted in adult male Hartley guinea pigs weighing 300 to 350 g at enrollment. One lead was sutured to the apex of the heart, while another was sutured to the side of the aorta. The animals were allowed to recover from surgery for 5 days prior to being returned to the testing colony. Following recovery, animals were subjected to two rounds of evaluation as follows:
# The animals were then returned to their housing to washout the drug over 5 to 7 days.
# ECGs were acquired continuously for 6 hours. The animals were then returned to their housing to washout the drug over 5 to 7 days.
# ECG analysis over 5 minutes pre-dose and 6 hours post dose consisted in was automated based on pattern recognition algorithms. The analyzed data were binned into 5-minute segments. Intervals such as PR, QRS, QT, QTc, JT and RR were analyzed automatically using AD Instruments LabChart Pro v8. The accuracy of the measurements was verified manually using digital cursors by randomly selecting 3 to 5 segments at any given time postdose. […] The frequency of arrhythmia was quantified and expressed as “% of ECG time spent in abnormal sinus rhythm over entire duration of the recording”.
# [2] = oral 1.0 mg/kg 14:0 lyso PG, then verapamil 0.5 mg/kg i.v., then Fingolimod infusion
# [3] = 1 h, read-out: Protection at 1 h post dose
# [4] = 2 h, read-out: Protection at 2 h post dose
# [5] = 4 h, read-out: Protection at 4 h post dose
# [6] = 6 h, read-out: Protection at 6 h post dose
# [7] = test compound 2 mg/kg oral given with moxifloxacin
# [8] = i.v. verapamil 0.5 mg/kg 60 minutes before Fingolimod infusion
# [9] = intravenous infusion of Fingolimod alone
SMILES,"inhibition in vivo at 2 mg/kg [1, 3] [%]","inhibition in vivo at 2 mg/kg [1, 4] [%]","inhibition in vivo at 2 mg/kg [1, 5] [%]","inhibition in vivo at 2 mg/kg [1, 6] [%]","Maximal prolongation [1, 7] [ms]",Onset of protection [1] [h],Time of maximal protection [1] [h],Duration of complete protection [1] [h],other results
"CCCCCCCCCCCCCC(=O)OC[C@@H](O)COP(=O)(O)OCC(O)CO (mixture of isomers) [14:0 lyso PG, 1-myristoyl-2-hydroxy-sn-glycero-3-phospho-(1′-rac-glycerol)]",,,,,,,,,"shift in the QTc-dose response of Moxifloxacin (QTc prolongation; concomitant dose of 14:0 lyso PG): statistically significant right-shift; changes in QTc (QTc prolongation; concomitant dose of 14:0 lyso PG with moxifloxacin): no, or very little, changes in QTc; Fingolimod dose at P-QRS dissociation, rest of the animals in the cohort (AV block; [2]): 0.3 mg/kg; animals in which a Mobitz-Type-2 AV block appeared (AV block; [2]): 2 out of 6; Fingolimod dose at P-QRS dissociation, the two animals with Mobitz-Type-2 AV block (AV block; oral 1.0 mg/kg 14:0 lyso PG, then verapamil 0.5 mg/kg i.v., then Fingolimod infusion, 2 out of 6 animals): 0.051 mg/kg; Fingolimod dose at which 1st-degree AV block appeared (AV block; oral gavage 1.0 mg/kg 14:0 lyso PG, 60 min later i.v. verapamil 0.5 mg/kg, 60 min later Fingolimod infusion): 0.2 mg/kg"
"CCCCCCCCCCCCCC(=O)OC[C@H](COP(=O)([O-])OCC(COC(C)=O)OC(C)=O)OC(=O)CCCCCCCCCCCCC.[Na+] (stereo partly drawn) [Compound 1, Sodium (R)-2,3-bis(tetradecanoyloxy)propyl (2,3-diacetoxypropyl) Phosphate]",118,122,100,116,0,1,2,6,
"CCCCCCCCCCCCCC(=O)OC[C@H](COP(=O)([O-])OCC(COC(=O)OCC)OC(=O)OCC)OC(=O)CCCCCCCCCCCCC.[Na+] (stereo partly drawn) [Compound 2, Sodium 2,3-bis((ethoxycarbonyl)oxy)propyl ((R)-2,3-bis (tetra decanoyloxy)propyl) Phosphate]",95,88,22,90,4,1,2,4,
"CCCCCCCCCCCCCCCCCC1OCC(COP(=O)([O-])OC[C@@H](COC(=O)CCCCCCCCCCCCC)OC(=O)CCCCCCCCCCCCC)O1.[Na+] (stereo partly drawn) [Compound 4, Sodium (R)-2,3-bis (tetradecanoyloxy)propyl ((2-heptadecyl-1,3-dioxolan-4-yl)methyl) Phosphate]",95,88,22,90,8,1,2,4,
"CCCCCCCCCCCCCCCC1OCC(COP(=O)([O-])OC[C@@H](COC(=O)CCCCCCCCCCCCC)OC(=O)CCCCCCCCCCCCC)O1.[Na+] (stereo partly drawn) [Compound 5, Sodium (R)-2,3-bis(tetradecanoyloxy)propyl ((2-pentadecyl-1,3-dioxolan-4-yl)methyl) Phosphate]",35,113,126,176,0,2,2,6,
"CCCCCCCCCCCCCC(=O)OC[C@H](COP(=O)([O-])OCC1COC(CCCCC)O1)OC(=O)CCCCCCCCCCCCC.[Na+] (stereo partly drawn) [Compound 6, Sodium (R)-2,3-bis(tetradecanoyloxy)propyl ((2-pentyl-1,3-dioxolan-4-yl)methyl) Phosphate]",74,110,115,138,3,1,2,6,
"CCCCCCCCCCCCCC(=O)OC[C@H](COP(=O)([O-])OCC(COC(=O)CCC)OC(=O)CCC)OC(=O)CCCCCCCCCCCCC.[Na+] (stereo partly drawn) [Compound 7, Sodium 2,3-bis(butyryloxy)propyl ((R)-2,3-bis(tetradecanoyloxy)propyl) Phosphate]",83,100,119,147,4,1,2,6,
"CCCCCCCCCCCCCC(=O)OC[C@H](COP(=O)([O-])OCC(COC(=O)CC(C)C)OC(=O)CC(C)C)OC(=O)CCCCCCCCCCCCC.[Na+] (stereo partly drawn) [Compound 8, Sodium 2,3-bis((3-methylbutanoyl)oxy)propyl ((R)-2,3-bis(tetradecanoyloxy)propyl) Phosphate]",74,97,100,132,2,1,2,6,
"CCCCCCCCCCCCCC(=O)OC[C@H](COP(=O)([O-])OCC(COC(=O)C(C)C)OC(=O)C(C)C)OC(=O)CCCCCCCCCCCCC.[Na+] (stereo partly drawn) [Compound 9, Sodium 2,3-bis(isobutyryloxy)propyl ((R)-2,3-bis(tetradecanoyloxy)propyl) Phosphate]",91,94,100,116,3,1,2,6,
"CCCCCCCCCCCCCC(=O)OC[C@H](COP(=O)([O][MgH])OCC(COC(=O)OCC)OC(=O)OCC)OC(=O)CCCCCCCCCCCCC (stereo partly drawn) [Compound 10, magnesium-2,3-bis((ethoxycarbonyl)oxy)propyl((R)-2,3-bis(tetradecanoyloxy)propyl) Phosphate]",,,,,,1,2,6,"Protection at 1 h post dose ([1]; percent of Moxifloxacin effect, single oral 2 mg/kg test compound concomitantly with oral moxifloxacin 20 mg/kg, 1 h post dose): 83%"
"CCCCCCCCCCCCCC(=O)OC[C@H](COP(=O)([O][MgH])OCC(COC(=O)OCC)OC(=O)OCC)OC(=O)CCCCCCCCCCCCC (stereo partly drawn) [Compound 11, calcium-2,3-bis((ethoxycarbonyl)oxy)propyl ((R)-2,3-bis(tetradecanoyloxy)propyl) Phosphate]",,,,,,1,2,6,"inhibition in vivo at 2 mg/kg ([1]; 1 h, read-out: Protection at 1 h post dose, percent of Moxifloxacin effect, single oral 2 mg/kg test compound concomitantly with oral moxifloxacin 20 mg/kg, 1 h post dose): 83%; inhibition in vivo at 2 mg/kg ([1]; 2 h, read-out: Protection at 2 h post dose, percent of Moxifloxacin effect, single oral 2 mg/kg test compound concomitantly with oral moxifloxacin 20 mg/kg, 2 h post dose): 94%; inhibition in vivo at 2 mg/kg ([1]; 4 h, read-out: Protection at 4 h post dose, percent of Moxifloxacin effect, single oral 2 mg/kg test compound concomitantly with oral moxifloxacin 20 mg/kg, 4 h post dose): 91%; inhibition in vivo at 2 mg/kg ([1]; 6 h, read-out: Protection at 6 h post dose, percent of Moxifloxacin effect, single oral 2 mg/kg test compound concomitantly with oral moxifloxacin 20 mg/kg, 6 h post dose): 116%; Maximal prolongation ([1]; test compound 2 mg/kg oral given with moxifloxacin, 2 mg/kg): 8 ms"
CCCCCCCCc1ccc(CCC(N)(CO)CO)cc1 [Fingolimod],,,,,,,,,"Fingolimod dose at 1st-degree AV block (AV block; [8]): 0.007 mg/kg; Fingolimod dose at 3rd-degree dissociation between P waves and QRS complexes (AV block; [8]): 0.045 mg/kg; Fingolimod dose at Mobitz-Type-1 2nd degree AV block (AV block; [8]): 0.01 mg/kg; Fingolimod dose at 1st degree AV block (AV block; [9]): 0.015 mg/kg; Fingolimod dose at 3rd degree AV block (AV block; [9]): 0.023 mg/kg; Fingolimod dose at Mobitz Type-1, 2nd-degree AV block (AV block; [9]): 0.02 mg/kg"
"COc1c(N2C[C@@H]3CCCN[C@@H]3C2)c(F)cc2c(=O)c(C(=O)O)cn(C3CC3)c12 [Moxifloxacin, reference compound]",,,,,,,,,"Maximal prolongation ([1]; Moxifloxacin alone, column head 40 mg/kg): 29 ms"
